Six molecules from ChEMBL document CHEMBL1201862, “PubChem BioAssay data set” (2004) can be followed below.

Active and inactive are the calls of the source. Some results are limits rather than exact numbers.

In one test the target is T1, Streptokinase A (Streptococcus pyogenes serotype M1, UniProt P10520).
T1 sequence (P10520 whole entry): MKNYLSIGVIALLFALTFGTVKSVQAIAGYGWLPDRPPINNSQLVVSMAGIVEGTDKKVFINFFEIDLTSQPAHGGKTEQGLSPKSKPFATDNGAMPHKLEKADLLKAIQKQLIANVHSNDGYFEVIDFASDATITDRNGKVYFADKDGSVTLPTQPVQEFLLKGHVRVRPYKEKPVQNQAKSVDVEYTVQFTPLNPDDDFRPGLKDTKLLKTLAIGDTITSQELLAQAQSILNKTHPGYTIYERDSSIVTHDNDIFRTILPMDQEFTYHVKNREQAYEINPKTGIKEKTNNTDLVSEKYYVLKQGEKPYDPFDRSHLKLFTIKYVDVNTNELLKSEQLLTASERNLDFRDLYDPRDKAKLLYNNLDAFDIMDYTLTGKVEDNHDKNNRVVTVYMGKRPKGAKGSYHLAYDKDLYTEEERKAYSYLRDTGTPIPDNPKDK
Description: S. pyogenes streptokinase expression inhibitors, potency, dose response, plasminogen activation absorbance, OD405 (AID 1914).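 Also: secreted streptokinase activity via plasminogen activation per viability signal from cell pellet.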 In kind it is functional, Streptococcus pyogenes M1 GAS.

Test [1] deals with Vero. Description: cells. The following applies: Chlorocebus sabaeus. The class given is functional.
Test [2] has as its system Streptococcus sp. 'group A'. Description: growth inhibition of control SK(-) GAS strain, dose response, counter-screen for streptokinase expression inhibitor project, luminescence, kanamycin, BacTiterGlo, confirmation (AID 1900). The class given is functional, organism-based. For orientation: The purpose of a counterscreen is to sort out artefacts and off-target activity.

Test [3] addresses Induced myeloid leukemia cell differentiation protein Mcl-1 (Homo sapiens, UniProt Q07820). The class given is functional.
The subject of test [4] is Vero. As to the kind of experiment: cells. The class given is functional, cell-based. Particulars: Chlorocebus sabaeus.
The test system of another test is Streptococcus. Description: Group A Streptococcus viability loss, dose response, counter-screen for streptokinase expression inhibitor project, luminescence, BacTiterGlo (AID 1915).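 Also: potency for reduction of bacterial viability or growth.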 In kind it is functional, organism-based.
For another test, the system named is HeLa. As to the kind of experiment: HeLa cell cytotoxicity, dose response, cytotoxicity control for MITF activator project, CellTiter-Glo luminescence, cherry-pick samples (AID 540259). The following applies: Homo sapiens. The class given is functional, cell-based. In general terms: In ATP-based viability assays light output follows the ATP content of the culture.

Test [5] in a line: HeLa cell cytotoxicity, dose response, cytotoxicity control for MgcRacGAP inhibitor project (AID 624300). In kind it is functional.
Test [6] concerns the target Glucose-6-phosphate 1-dehydrogenase (Homo sapiens, UniProt P11413). Description: human G6PD enzyme inhibitors, dose response, selectivity assay for P. falciparum G6PD inhibitor project, biochemical, fluorescence (AID 504792). In kind it is functional.
The target of test [7] is T2, Rac GTPase-activating protein 1 (Homo sapiens, UniProt Q9H0H5).
T2 sequence (Q9H0H5 whole entry): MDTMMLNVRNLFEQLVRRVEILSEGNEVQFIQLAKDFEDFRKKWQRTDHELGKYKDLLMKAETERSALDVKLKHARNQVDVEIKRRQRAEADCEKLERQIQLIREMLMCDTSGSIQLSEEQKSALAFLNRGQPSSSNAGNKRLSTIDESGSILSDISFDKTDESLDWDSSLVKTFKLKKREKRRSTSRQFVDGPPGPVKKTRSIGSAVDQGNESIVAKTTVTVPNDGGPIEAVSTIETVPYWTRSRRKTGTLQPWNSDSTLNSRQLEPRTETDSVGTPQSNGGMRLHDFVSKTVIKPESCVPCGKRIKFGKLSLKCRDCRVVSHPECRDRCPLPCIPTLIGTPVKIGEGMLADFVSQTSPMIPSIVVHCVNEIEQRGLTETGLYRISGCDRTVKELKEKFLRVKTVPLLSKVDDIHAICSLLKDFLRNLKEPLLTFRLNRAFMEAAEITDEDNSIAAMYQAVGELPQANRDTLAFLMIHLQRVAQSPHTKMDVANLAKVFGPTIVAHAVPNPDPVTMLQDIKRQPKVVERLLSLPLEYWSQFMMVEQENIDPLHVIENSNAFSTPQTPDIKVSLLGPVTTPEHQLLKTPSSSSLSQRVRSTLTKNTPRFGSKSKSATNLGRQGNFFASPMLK
Description: MgcRacGAP GTPase-activating activity inhibitors, confirmation, biochemical, ADP Hunter fluorescence, primary and confirmatory (AID 624330). In kind it is functional.

A further test addresses Genome polyprotein (dengue virus type 2, UniProt P29990). Description: Dengue-2 NS5 methyltransferase inhibitors, primary screen, biochemical, confirmation dose response (AID 588689). The class given is functional.
The target in test [8] is DNA (cytosine-5)-methyltransferase 1 (Homo sapiens, UniProt P26358). As to the kind of experiment: DNMT1 methyltransferase inhibitors, confirmation, biochemical, fluorescent molecular beacon (AID 602386). The class given is functional.
Sequence of DNA (cytosine-5)-methyltransferase 1 (P26358 whole entry): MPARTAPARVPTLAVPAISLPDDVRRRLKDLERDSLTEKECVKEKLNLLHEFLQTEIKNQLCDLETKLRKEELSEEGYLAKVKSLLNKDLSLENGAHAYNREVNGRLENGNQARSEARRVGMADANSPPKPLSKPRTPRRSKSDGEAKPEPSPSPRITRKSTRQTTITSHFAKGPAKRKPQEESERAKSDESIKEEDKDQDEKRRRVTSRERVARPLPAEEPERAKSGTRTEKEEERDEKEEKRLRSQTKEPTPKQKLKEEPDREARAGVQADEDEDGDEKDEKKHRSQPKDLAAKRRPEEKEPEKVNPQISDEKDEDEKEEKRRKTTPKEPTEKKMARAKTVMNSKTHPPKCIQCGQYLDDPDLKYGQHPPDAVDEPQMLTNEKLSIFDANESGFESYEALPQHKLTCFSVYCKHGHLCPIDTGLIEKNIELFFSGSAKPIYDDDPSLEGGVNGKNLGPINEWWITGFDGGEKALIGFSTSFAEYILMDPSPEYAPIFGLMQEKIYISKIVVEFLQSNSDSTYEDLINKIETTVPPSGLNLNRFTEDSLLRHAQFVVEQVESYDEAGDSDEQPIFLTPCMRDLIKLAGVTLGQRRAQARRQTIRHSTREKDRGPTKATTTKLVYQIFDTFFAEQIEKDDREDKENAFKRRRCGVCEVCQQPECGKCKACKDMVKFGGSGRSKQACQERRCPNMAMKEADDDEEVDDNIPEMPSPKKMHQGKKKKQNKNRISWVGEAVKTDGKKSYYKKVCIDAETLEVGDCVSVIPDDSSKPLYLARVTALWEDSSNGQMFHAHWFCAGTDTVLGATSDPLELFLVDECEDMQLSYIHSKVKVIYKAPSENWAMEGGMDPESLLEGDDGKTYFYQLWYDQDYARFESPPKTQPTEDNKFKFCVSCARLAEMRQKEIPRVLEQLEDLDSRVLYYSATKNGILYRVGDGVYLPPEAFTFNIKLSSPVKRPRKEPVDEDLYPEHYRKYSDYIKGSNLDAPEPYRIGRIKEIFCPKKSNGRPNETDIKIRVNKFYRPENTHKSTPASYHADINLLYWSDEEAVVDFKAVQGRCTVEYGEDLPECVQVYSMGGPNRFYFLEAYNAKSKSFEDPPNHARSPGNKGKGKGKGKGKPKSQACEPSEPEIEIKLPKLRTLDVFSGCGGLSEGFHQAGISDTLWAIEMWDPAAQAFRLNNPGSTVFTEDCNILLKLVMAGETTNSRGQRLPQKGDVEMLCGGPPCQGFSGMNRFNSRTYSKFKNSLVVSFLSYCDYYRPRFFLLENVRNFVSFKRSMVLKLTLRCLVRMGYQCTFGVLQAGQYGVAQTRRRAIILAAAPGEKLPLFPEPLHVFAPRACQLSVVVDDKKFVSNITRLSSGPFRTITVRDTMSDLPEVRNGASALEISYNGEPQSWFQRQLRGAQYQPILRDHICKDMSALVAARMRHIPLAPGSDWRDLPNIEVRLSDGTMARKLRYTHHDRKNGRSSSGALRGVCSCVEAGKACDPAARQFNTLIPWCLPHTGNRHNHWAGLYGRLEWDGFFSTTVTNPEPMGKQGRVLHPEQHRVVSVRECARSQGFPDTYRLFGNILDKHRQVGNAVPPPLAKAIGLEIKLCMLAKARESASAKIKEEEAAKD
Test [9] deals with T3, Histone-lysine N-methyltransferase NSD2 (Homo sapiens, UniProt O96028).
T3 sequence (O96028 whole entry): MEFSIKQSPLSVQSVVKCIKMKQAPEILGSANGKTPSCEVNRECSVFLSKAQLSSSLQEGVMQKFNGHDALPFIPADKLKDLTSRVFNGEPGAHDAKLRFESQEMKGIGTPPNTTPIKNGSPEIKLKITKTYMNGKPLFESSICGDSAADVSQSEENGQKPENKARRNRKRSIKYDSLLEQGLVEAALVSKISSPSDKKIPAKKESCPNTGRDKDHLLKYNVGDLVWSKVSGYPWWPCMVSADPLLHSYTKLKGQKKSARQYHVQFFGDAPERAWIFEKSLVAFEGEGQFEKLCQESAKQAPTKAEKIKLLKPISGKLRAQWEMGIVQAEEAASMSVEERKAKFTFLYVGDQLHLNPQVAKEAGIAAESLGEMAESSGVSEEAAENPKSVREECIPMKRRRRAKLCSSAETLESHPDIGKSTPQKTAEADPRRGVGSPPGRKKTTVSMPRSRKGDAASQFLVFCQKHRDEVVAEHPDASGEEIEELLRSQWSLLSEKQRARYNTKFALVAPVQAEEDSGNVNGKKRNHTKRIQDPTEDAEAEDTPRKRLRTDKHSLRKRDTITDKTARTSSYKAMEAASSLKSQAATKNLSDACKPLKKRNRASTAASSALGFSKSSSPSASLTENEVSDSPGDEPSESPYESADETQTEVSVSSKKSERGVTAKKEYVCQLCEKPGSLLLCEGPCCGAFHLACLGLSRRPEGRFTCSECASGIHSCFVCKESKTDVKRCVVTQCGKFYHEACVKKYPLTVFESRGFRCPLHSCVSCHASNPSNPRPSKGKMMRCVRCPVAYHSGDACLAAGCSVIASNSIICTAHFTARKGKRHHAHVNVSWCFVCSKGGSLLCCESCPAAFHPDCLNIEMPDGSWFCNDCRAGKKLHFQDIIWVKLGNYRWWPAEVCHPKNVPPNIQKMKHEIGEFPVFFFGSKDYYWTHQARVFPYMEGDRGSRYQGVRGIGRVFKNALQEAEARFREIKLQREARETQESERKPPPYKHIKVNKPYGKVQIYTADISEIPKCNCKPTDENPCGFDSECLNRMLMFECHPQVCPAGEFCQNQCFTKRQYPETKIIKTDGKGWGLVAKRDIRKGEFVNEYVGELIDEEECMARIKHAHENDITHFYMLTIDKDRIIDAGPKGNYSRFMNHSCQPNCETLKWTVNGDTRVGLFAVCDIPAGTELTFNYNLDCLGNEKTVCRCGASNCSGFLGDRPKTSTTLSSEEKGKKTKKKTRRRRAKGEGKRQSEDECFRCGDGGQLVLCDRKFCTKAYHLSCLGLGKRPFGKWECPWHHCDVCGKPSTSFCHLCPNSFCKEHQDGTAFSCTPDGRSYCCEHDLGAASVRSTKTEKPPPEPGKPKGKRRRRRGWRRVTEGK
The class given is biochemical.

Sequence of Genome polyprotein (P29990 2492-3391 limits assumed): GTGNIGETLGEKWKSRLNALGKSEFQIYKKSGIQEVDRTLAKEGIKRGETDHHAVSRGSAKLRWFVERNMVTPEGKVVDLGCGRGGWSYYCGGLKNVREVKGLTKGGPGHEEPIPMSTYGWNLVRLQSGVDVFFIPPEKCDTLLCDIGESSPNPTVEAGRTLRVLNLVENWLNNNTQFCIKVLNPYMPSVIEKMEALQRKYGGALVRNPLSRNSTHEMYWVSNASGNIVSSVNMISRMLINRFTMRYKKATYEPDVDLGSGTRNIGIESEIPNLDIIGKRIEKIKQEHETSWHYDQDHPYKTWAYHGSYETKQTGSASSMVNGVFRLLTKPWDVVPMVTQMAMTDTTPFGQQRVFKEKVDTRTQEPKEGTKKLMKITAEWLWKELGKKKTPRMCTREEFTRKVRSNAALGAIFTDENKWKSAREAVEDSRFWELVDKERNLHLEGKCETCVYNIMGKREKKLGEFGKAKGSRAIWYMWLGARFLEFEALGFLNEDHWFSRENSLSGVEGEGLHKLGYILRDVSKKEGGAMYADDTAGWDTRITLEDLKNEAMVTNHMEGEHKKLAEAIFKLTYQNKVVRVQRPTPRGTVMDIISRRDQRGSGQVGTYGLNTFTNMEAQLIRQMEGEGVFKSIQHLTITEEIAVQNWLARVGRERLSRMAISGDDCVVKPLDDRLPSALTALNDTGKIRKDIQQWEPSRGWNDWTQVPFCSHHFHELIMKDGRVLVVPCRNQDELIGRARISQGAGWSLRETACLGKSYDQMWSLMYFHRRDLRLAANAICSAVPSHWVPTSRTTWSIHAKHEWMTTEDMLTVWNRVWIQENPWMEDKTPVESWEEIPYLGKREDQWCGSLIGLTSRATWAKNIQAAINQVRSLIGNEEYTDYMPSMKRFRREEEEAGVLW
Sequence of Induced myeloid leukemia cell differentiation protein Mcl-1 (Q07820 whole entry): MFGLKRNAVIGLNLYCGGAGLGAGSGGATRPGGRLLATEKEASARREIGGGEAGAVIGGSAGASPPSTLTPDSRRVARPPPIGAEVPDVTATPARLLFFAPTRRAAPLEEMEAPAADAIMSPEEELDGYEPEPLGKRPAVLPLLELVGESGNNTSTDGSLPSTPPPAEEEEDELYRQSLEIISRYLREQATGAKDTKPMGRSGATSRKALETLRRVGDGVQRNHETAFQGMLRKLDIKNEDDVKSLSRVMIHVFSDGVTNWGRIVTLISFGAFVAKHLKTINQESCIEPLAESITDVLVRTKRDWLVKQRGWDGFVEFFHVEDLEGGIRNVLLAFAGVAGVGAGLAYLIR
Sequence of Glucose-6-phosphate 1-dehydrogenase (P11413 whole entry): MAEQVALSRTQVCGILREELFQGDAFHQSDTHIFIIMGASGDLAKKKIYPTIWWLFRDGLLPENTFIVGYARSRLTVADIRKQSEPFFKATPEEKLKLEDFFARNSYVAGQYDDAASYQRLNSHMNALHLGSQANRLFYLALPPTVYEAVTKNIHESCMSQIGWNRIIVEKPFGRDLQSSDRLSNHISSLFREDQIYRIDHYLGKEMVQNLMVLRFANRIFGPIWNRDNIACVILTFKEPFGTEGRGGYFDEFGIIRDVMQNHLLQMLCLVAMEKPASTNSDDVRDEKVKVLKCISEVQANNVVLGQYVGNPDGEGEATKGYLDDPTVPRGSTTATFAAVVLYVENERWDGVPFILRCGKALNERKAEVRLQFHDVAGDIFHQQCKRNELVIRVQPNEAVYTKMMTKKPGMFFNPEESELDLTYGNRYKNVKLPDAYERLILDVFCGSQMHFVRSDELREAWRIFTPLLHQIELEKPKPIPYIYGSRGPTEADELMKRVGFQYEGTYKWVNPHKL

In the case of `O=C(O)c1ccccc1N/N=C/c1cc(Br)cc(Br)c1O`, the values for the EC50 (at Streptokinase A; in test [2]; in the test on Streptococcus) were 32.4 µM (active), 4.5 µM (active) and 60.6 µM (active), respectively. For the same molecule, the 50% cytotoxic concentration (CC50) (as a rule, the concentration at which the toxic effect on the cells reaches its halfway point) in the test on Vero [1] was > 25 µM (active). Moreover, the values for the IC50 (in [3]; in the test with Vero [4]) were 8.04 µM (active) and 18.9 µM (active), respectively. Further, in the test with HeLa, the AC50 (usually the concentration at which the activity in the assay is half-maximal) was 57.4 µM (active).
Regarding `COC1=C(Br)C(=O)c2nc(C)ccc2C1=O`, the CC50 in test [5] was 100 µM (active). Further, the IC50 (in general, the concentration needed to halve the response being measured) in [6] was 53.7 µM (inactive); in [7] it was 68.1 µM (active); at Genome polyprotein, 3.77 µM (active); in test [8], 8.73 µM (active). Besides, the AC50 in test [9] is 1.71 µM (active).
As to `COc1ccc2c(c1OC)C(=O)N(c1ccc(C)cc1)C2`, the AC50 with HeLa was 82.3 µM (active).
Take `Cc1ccc(C(C)C)cc1OCC(=O)Nc1nnc(C2CC2)s1`: the half-inhibitory concentration (IC50) in the test with Vero [4] was > 25 µM (active).
For `Cc1nn2c(-c3ccccc3)ccnc2c1-c1ccccc1`, in the test on HeLa, the AC50 is 34.7 µM (active).
The same measure, in the same setting: in the case of `COC(=O)C1CCCCN1C(=O)c1ccc2oc(Cc3ccccc3)nc2c1` (configuration not stated) it was 181 µM (active).
